Data on ten molecules can be found in patent US11932845B2, “Microorganisms and methods for production of 4-hydroxybutyrate, 1,4-butanediol and related compounds” (priority 2012, dated 2024).

The test system of one series is Aldehyde dehydrogenase. Put plainly: Aldehyde dehydrogenase (ALD) assay in the reductive direction, cell extracts. The note with it: cell extracts from MG1655 lacI^Q containing pZA33.
Another series has as its system Alcohol dehydrogenase. Nature of the series: Alcohol dehydrogenase (ADH) assay in the reductive direction, cell extracts. The note with it: cell extracts from MG1655 lacI^Q containing pZA33.
Series [1] concerns alcohol dehydrogenase from Brevibacterium sp KU 1309. The note with it: reduction of carbonyl compounds; cited from earlier work.
For series [2], the system named is branched chain alpha-ketoacid decarboxylase (BCKA). The conditions noted are these: decarboxylation; cited from earlier work.
Series [3] concerns D(−)-lactate dehydrogenase from L. leichmanii. The conditions noted are these: compared with that on pyruvate; cited from earlier work.
Series [4] concerns the target T1, L(+)-lactate dehydrogenase from rabbit muscle (Oryctolagus cuniculus, UniProt P13491).
T1 construct: host or cells: rabbit muscle
The conditions noted are these: compared with that on pyruvate; cited from earlier work.

Series [5] deals with L(+)-lactate dehydrogenase from A. eutrophus. The note with it: compared with that on pyruvate; cited from earlier work.
The conditions of series [6]: Minohara et al., 2002; read-out: Km for O2; cited from earlier work.
Series [7] deals with T2, phosphotransbutyrylase (ptb) (Clostridium acetobutylicum, UniProt P58255).
T2 sequence (P58255 whole entry, looked up): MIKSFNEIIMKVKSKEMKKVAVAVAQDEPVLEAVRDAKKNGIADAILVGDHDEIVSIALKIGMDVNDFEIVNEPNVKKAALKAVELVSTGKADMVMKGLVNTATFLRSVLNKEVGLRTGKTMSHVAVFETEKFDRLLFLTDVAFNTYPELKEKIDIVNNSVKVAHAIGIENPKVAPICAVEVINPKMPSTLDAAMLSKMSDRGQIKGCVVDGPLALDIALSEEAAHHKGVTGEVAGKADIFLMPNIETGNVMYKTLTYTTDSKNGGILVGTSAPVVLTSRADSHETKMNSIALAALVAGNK
Nature of the series: PTB enzyme activity, butyryl-CoA to butyryl-phosphate, DTNB. The note with it: extracts of cells with pZA33-0020-0021. The class given is biochemical, C. acetobutylicum. On the procedure: The enzyme activity of PTB is measured in the direction of butyryl-CoA to butyryl-phosphate as described in Cary et al. J. Bacteriol. 170:4613-4618 (1988). It provides inorganic phosphate for the conversion, and follows the increase in free CoA with the reagent 5,5′-dithiobis-(2-nitrobenzoic acid), or DTNB. DTNB rapidly reacts with thiol groups such as free CoA to release the yellow-colored 2-nitro-5-mercaptobenzoic acid (TNB), which absorbs at 412 nm with a molar extinction coefficient of 14,140 M cm^−1. The assay buffer contained 150 mM potassium phosphate at pH 7.4, 0.1 mM DTNB, and 0.2 mM butyryl-CoA, and the reaction was started by addition of 2 to 50 μL cell extract. The enzyme activity of BK is measured in the direction of butyrate to butyryl-phosphate formation at the expense of ATP. The procedure is similar to the assay for acetate kinase previously described Rose et al., J. Biol. Chem. 211:737-756 (1954). […] This assay links conversion of ATP to ADP by acetate kinase to the linked conversion of ADP and phosphoenolpyruvate (PEP) to ATP and pyruvate by pyruvate kinase, followed by the conversion of pyruvate and NADH to lactate and NAD+ by lactate dehydrogenase. […] The reaction was started by adding 2 to 50 μL cell extract, and the reaction was monitored based on the decrease in absorbance at 340 nm indicating NADH oxidation.

The next series has as its system BDO pathway. The series is classed as cell-based, E. coli. The note with it: host ECKh-432 with aldehyde dehydrogenase; 23G needle.
In series [8] the test system is 4-HB to BDO conversion pathway. Put plainly: Production of BDO from 10 mM 4-HB in recombinant E. coli strains. The conditions noted are these: for BDO: adhE2 in pZE13.
Experimental: For the BDO production experiments, cat2 from Porphyromonas gingivalis W83 (gene 0034) was included on pZA33 for the conversion of 4-HB to 4-HB-CoA, while the candidate dehydrogenase genes were expressed on pZE13. The host strain was MG1655 lacI^Q. Along with the alcohol and aldehyde dehydrogenase candidates, we also tested the ability of CoA-dependent succinic semialdehyde dehydrogenases (sucD) to function in this step, due to the similarity of the substrates. Cells were grown to an OD of about 0.5 in LB medium supplemented with 10 mM 4-HB, induced with 1 mM IPTG, and culture broth samples taken after 24 hours and analyzed for BDO as described below.
Finally, the construct was tested for participation in the conversion of 4-HB to BDO. Host strains were transformed with the pZA33-0020-0021 construct described and pZE13-0002, and compared to use of cat2 in BDO production using the aerobic procedure used above in FIG. 5.

Experimental for Aldehyde dehydrogenase: Alcohol (ADH) and aldehyde (ALD) dehydrogenase was assayed in the reductive direction using a procedure adapted from several literature sources (Durre et al., FEMS Microbiol. Rev. 17:251-262 (1995); Palosaari and Rogers, J. Bacteriol. 170:2971-2976 (1988) and Welch et al., Arch. Biochem. Biophys. 273:309-318 (1989). The oxidation of NADH is followed by reading absorbance at 340 nm every four seconds for a total of 240 seconds at room temperature. The reductive assays were performed in 100 mM MOPS (adjusted to pH 7.5 with KOH), 0.4 mM NADH, and from 1 to 50 μl of cell extract. The reaction is started by adding the following reagents: 100 μl of 100 mM acetaldehyde or butyraldehyde for ADH, or 100 μl of 1 mM acetyl-CoA or butyryl-CoA for ALD. The Spectrophotometer is quickly blanked and then the kinetic read is started. The resulting slope of the reduction in absorbance at 340 nm per minute, along with the molar extinction coefficient of NAD(P)H at 340 nM (6000) and the protein concentration of the extract, can be used to determine the specific activity.
Gene candidates for the 4-HB to BDO conversion pathway were next tested for activity when expressed in the E. coli host MG1655 lacI^Q. Recombinant strains containing each gene candidate expressed on pZA33 were grown in the presence of 0.25 mM IPTG for four hours at 37° C. to fully induce expression of the enzyme. Four hours after induction, cells were harvested and assayed for ADH and ALD activity as described above.

For the molecule “0011: Gene ID 0011, adhE, E. coli, Aldehyde/alcohol dehydrogenase [Sample 0011]”, in the series on Aldehyde dehydrogenase, the “Aldehyde dehydrogenase, Substrate Acetyl-CoA” value is 0.0095 μmol min^−1 mg cell protein^−1 and the “Aldehyde dehydrogenase, Substrate Butyryl-CoA” value is recorded as 0.0069 μmol min^−1 mg cell protein^−1. Further, in the series on Alcohol dehydrogenase, the “Alcohol dehydrogenase, Substrate Acetaldehyde” value is given as 0.0093 μmol min^−1 mg cell protein^−1 and the “Alcohol dehydrogenase, Substrate Butyraldehyde” value is reported as 0.0265 μmol min^−1 mg cell protein^−1.
As for `CCCCCCCC=O` [1-Octylaldehyde], the “Relative Activity” value in series [1] was 87%.
Turning to `O=C(O)CCC(=O)C(=O)O` [2-Oxoglutarate], in [2], the “activity relative to activity on other branched-chain substrates” value is listed as 5%. Moreover, the “Activity (%) of D(−)-lactate dehydrogenase from L. leichmanii” value in [3] is given as 0.0%. Also, the “Activity (%) of L(+)-lactate dehydrogenase from rabbit muscle” value in series [4] is listed as 0.0%. Moreover, the “Activity (%) of L(+)-lactate dehydrogenase from A. eutrophus” value in series [5] was 79.6%.
Regarding `CC(C=O)c1ccccc1` (stereo not drawn) [2-Phenylpropionaldehyde], the “Relative Activity” value in series [1] is 188%.
In the case of `CC(=O)c1ccccc1` [Acetophenone], the “Relative Activity” value in series [1] is recorded as 0%.
For the molecule `O=CCc1ccccc1` [Phenylacetaldehyde], the “Relative Activity” value in series [1] is reported as 100%.
As for “cytochrome bd oxidase: E. coli cytochrome d terminal oxidase, encoded by the cyd operon”, the Michaelis constant (Km) in series [6] was 0.01 µM.

B1: PTB: phosphotransbutyrylase (ptb) from C. acetobutylicum, gene 0020 (protein, UniProt P58255 1-301, looked up)
Phosphate butyryltransferase: MIKSFNEIIMKVKSKEMKKVAVAVAQDEPVLEAVRDAKKNGIADAILVGDHDEIVSIALKIGMDVNDFEIVNEPNVKKAALKAVELVSTGKADMVMKGLVNTATFLRSVLNKEVGLRTGKTMSHVAVFETEKFDRLLFLTDVAFNTYPELKEKIDIVNNSVKVAHAIGIENPKVAPICAVEVINPKMPSTLDAAMLSKMSDRGQIKGCVVDGPLALDIALSEEAAHHKGVTGEVAGKADIFLMPNIETGNVMYKTLTYTTDSKNGGILVGTSAPVVLTSRADSHETKMNSIALAALVAGNK
Turning to B1, in series [7], the “specific activity of PTB” value is “approximately 5 U/mg”.

B2: 0026: Gene ID 0026, bdhA, Clostridium acetobutylicum ATCC 824, Butanol dehydrogenase (protein, UniProt Q04944 1-389, looked up)
NADH-dependent butanol …: MLSFDYSIPTKVFFGKGKIDVIGEEIKKYGSRVLIVYGGGSIKRNGIYDRATAILKENNIAFYELSGVEPNPRITTVKKGIEICRENNVDLVLAIGGGSAIDCSKVIAAGVYYDGDTWDMVKDPSKITKVLPIASILTLSATGSEMDQIAVISNMETNEKLGVGHDDMRPKFSVLDPTYTFTVPKNQTAAGTADIMSHTFESYFSGVEGAYVQDGIAEAILRTCIKYGKIAMEKTDDYEARANLMWASSLAINGLLSLGKDRKWSCHPMEHELSAYYDITHGVGLAILTPNWMEYILNDDTLHKFVSYGINVWGIDKNKDNYEIAREAIKNTREYFNSLGIPSKLREVGIGKDKLELMAKQAVRNSGGTIGSLRPINAEDVLEIFKKSY
Regarding B2, in the series with Aldehyde dehydrogenase, the “Aldehyde dehydrogenase, Substrate Acetyl-CoA” value is 0.0005 μmol min^−1 mg cell protein^−1 and the “Aldehyde dehydrogenase, Substrate Butyryl-CoA” value is on record as 0 μmol min^−1 mg cell protein^−1. Besides, in the series on Alcohol dehydrogenase, the “Alcohol dehydrogenase, Substrate Acetaldehyde” value was 0.0008 μmol min^−1 mg cell protein^−1 and the “Alcohol dehydrogenase, Substrate Butyraldehyde” value is reported as 0.0024 μmol min^−1 mg cell protein^−1.

B3: 0034: Gene ID 0034, cat2, Porphyromonas gingivalis W83, 4-hydroxybutyrate coenzyme A transferase (protein, listed as Porphyromonas gingivalis)
chain: MKDVLAEYASRIVSAEEAVKHIKNGERVALSHAAGVPQSCVDALVQQADLFQNVEIYHMLCLGEGKYMAPEMAPHFRHITNFVGGNSRKAVEENRADFIPVFFYEVPSMIRKDILHIDVAIVQLSMPDENGYCSFGVSCDYSKPAAESAHLVIGEINRQMPYVHGDNLIHISKLDYIVMADYPIYSLAKPKIGEVEEAIGRNCAELIEDGATLQLGIGAIPDAALLFLKDKKDLGIHTEMFSDGVVELVRSGVITGKKKTLHPGKMVATFLMGSEDVYHFIDKNPDVELYPVDYVNDPRVIAQNDNMVSINSCIEIDLMGQVVSECIGSKQFSGTGGQVDYVRGAAWSKNGKSIMAIPSTAKNGTASRIVPIIAEGAAVTTLRNEVDYVVTEYGIAQLKGKSLRQRAEALIAIAHPDFREELTKHLRKRFG
Consider B3, for which the “BDO and GBL levels” value in the series with BDO pathway is recorded as “significantly higher than 2021n”. Besides, the BDO/OD in series [8] (Host Strain MG1655 lacI^Q) was 0.042; in [8] (Host Strain MG1655 ΔadhE lacI^Q) it was 0.166. The BDO in series [8] (Host Strain MG1655 lacI^Q, aerobic procedure) came to 0.827 µM; in [8] (Host Strain MG1655 ΔadhE lacI^Q, aerobic procedure), 2.084 µM. Also, the BDO produced in series [8] (with pZE13-0002, aerobic procedure) was found to be 2 mM.

In general, Km refers to the concentration of substrate that gives half-maximal velocity.
